# Laboratory results published in ChEMBL document CHEMBL4706684, “Discovering High Potent Hsp90 Inhibitors as Antinasopharyngeal Carcinoma Agents through Fragment Assembling Approach” (J Med Chem, 2021).
# Legend:
# CNE-2 = assay: Induction of apoptosis in human CNE-2 cells assessed as necrosis cells level at 50 nM incubated for 12 hrs by Annexin-V/FITC staining based FACS analysis (reference value: 1.45%); format: cell-based; conditions: cne-2, 12 h, 0.05 µM
# L02 = assay: Toxicity in human L02 cells assessed as induction of apoptosis at 62.5 to 1000 nM incubated for 12 hrs by Annexin-V/FITC staining based FACS analysis; format: cell-based; conditions: l02, 12 h, 1 µM, dose 62.5-1000 nM
# CNE2 (Homo sapiens) = assay: Induction of apoptosis in human CNE2 cells at 70 nM incubated for 12 hrs in presence of HSP90-beta siRNA by Annexin-V/FITC staining based FACS analysis; conditions: cne2, 12 h, 0.07 µM
compound,measurement,setting,value
CC(C)(C)c1ccc(Cn2cc(-c3cc(O)c(O)c(O)c3)nn2)cc1,Activity,CNE-2,0.37%
same,Activity,L02,Non-Toxic
same,Activity,CNE2 (Homo sapiens),Non-Toxic
